In data set [1] the target is 5-hydroxytryptamine receptor 2A (Homo sapiens, UniProt P28223). It counts as cell membranes, CHO-K1, Membrane.
Data set [2] concerns the target T1, 5-hydroxytryptamine receptor 7 (Homo sapiens, UniProt P34969). It is filed as cell membranes, CHO-K1, Membrane.
The conditions of data set [3]: mouse, in vivo, ip, 0.5 h.
Data set [4] concerns the target T2, 5-hydroxytryptamine receptor 2C (Homo sapiens, UniProt P28335).
T2 sequence (P28335 whole entry): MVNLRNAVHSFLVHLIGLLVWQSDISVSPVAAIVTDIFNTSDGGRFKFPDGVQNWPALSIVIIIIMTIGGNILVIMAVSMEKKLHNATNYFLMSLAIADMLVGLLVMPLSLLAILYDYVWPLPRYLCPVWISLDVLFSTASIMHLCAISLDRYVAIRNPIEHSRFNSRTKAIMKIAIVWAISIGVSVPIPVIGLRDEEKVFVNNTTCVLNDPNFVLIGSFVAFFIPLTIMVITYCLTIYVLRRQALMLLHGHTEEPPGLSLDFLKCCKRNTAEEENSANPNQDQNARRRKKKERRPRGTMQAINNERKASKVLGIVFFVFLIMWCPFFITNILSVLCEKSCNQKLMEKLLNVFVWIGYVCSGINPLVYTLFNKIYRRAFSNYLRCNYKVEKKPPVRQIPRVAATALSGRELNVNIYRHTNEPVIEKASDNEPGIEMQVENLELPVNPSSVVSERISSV
The data set is described as follows: Antagonist activity at recombinant human 5HT2C receptor expressed in HEK293 cells assessed as inhibition of serotonin-induced inositol phosphate accumulation measured after 30 mins by HTRF assay. It counts as cell-based. As to conditions: hek293, 0.5 h.

Data set [5] can be described thus: Psychoactive effect in ip dosed CD-1 mouse assessed as catalepsy effect measured after 30 to 120 mins by bar test. As to conditions: in vivo, time 30-120 min. It counts as ADME, organism-based.
Data set [6] can be described thus: Sedative activity in ip dosed CD-1 mouse assessed as effect spontaneous locomotor activity measured at 5 mins interval for 120 mins. It counts as ADME, organism-based. To be noted: in vivo, 2 h.
The nature of data set [7]: Sedative activity in ip dosed Swiss albino mouse assessed as effect spontaneous locomotor activity measured during 2 to 6 mins of test. It counts as ADME, organism-based. To be noted: in vivo, time 2-6 min.
For data set [8], the species on record is Mus musculus. The data set can be described thus: animal or person. As to conditions: CD-1, ip, 2 h, read-out: MED.
Data set [9] is filed under the species Mus musculus. The data set is described as follows: animal or person. To be noted: CD-1, ip, 2 h, read-out: MED. This is another data set of the same source.
The species named for data set [10] is Mus musculus. The data set is described as follows: animal or person. To be noted: Swiss, ip, 0.1 h, read-out: MED.
Data set [11] has as its target D(2) dopamine receptor (Homo sapiens) (UniProt P14416). To be noted: CHO-K1, filed as antagonist, time 15-31 min.
For data set [12], the target named is T1, 5-hydroxytryptamine receptor 7. As to conditions: CHO-K1, filed as antagonist, time 1.0 hrs.
Data set [13] has as its target T3, Alpha-2C adrenergic receptor (Homo sapiens, UniProt P18825).
T3 sequence (P18825 whole entry): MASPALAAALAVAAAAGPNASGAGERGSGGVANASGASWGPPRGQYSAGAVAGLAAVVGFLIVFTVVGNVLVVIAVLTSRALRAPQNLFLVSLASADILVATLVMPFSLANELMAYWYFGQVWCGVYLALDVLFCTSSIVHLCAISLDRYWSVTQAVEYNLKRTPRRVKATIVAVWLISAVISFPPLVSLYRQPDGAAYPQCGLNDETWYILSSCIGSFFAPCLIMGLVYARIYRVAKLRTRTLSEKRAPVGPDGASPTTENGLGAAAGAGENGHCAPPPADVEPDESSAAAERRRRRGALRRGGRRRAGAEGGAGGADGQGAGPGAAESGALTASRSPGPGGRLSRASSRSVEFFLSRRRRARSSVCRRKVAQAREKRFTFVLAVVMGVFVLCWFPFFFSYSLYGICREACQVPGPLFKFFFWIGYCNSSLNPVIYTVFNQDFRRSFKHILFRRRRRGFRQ
The data set can be described thus: Antagonist activity at recombinant human adrenergic receptor alpha2c expressed in CHO-K1 cells assessed inhibition of epinephrine-induced cAMP accumulation measured after 10 mins by HTRF assay. To be noted: cho-k1, 10 min. It counts as cell-based.

Some results are limits rather than exact numbers.

T1 sequence (P34969 whole entry): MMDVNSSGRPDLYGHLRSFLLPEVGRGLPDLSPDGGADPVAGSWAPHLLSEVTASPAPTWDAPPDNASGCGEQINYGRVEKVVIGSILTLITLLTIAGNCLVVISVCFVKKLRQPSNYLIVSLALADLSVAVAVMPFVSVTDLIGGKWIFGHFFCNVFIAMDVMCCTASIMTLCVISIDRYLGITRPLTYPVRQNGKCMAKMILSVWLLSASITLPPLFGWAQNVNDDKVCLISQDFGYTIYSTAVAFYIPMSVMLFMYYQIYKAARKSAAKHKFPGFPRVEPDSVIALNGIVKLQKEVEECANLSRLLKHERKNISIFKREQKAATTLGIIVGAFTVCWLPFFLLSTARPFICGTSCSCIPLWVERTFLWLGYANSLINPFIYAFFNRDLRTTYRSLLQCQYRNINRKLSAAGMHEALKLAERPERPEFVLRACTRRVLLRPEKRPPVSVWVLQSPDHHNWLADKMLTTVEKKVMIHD
5-hydroxytryptamine receptor 2A, sequence (P28223 whole entry): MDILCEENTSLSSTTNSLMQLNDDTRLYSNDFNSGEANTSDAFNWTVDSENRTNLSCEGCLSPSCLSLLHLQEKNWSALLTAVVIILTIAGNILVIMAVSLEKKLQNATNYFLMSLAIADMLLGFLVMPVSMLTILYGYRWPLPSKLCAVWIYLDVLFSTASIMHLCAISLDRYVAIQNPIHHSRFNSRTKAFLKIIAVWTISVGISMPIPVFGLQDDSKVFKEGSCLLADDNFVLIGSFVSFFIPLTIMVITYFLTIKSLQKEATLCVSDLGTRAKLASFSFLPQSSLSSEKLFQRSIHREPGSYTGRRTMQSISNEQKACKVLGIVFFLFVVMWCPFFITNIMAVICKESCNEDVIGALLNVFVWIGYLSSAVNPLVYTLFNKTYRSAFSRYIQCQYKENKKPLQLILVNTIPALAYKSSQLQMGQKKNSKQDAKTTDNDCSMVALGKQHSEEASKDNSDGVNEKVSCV
D(2) dopamine receptor (Homo sapiens), sequence (P14416 whole entry): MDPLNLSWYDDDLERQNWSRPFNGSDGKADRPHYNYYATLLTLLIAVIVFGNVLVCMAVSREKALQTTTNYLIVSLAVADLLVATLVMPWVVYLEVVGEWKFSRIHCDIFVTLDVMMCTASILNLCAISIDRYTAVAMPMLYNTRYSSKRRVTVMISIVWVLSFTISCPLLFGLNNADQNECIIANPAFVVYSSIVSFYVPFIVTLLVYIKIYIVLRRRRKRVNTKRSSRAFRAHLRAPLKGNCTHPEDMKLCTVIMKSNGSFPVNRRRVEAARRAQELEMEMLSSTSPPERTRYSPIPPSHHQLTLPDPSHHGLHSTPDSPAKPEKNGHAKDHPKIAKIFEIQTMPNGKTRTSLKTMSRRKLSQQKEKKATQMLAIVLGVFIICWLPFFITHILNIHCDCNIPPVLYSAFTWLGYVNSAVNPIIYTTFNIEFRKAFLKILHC

On to `O=S(=O)(N[C@H]1CCN(CCCc2noc3cc(F)ccc23)C1)c1ccc(F)c(Cl)c1`, for which the Ki (in general, a measure of affinity in units of concentration, obtained from inhibition or displacement) was 6.46 nM in data set [1] and 25.7 nM in [2].

On to `Cc1cccc(S(=O)(=O)N[C@H]2CCN(CCCc3noc4cc(F)ccc34)C2)c1`, for which the Ki in data set [1] is 1.02 nM; in [2] it was 12.9 nM.

In [3], `O=C1CCc2ccc(OCCCCN3CCN(c4cccc(Cl)c4Cl)CC3)cc2N1` [ARIPIPRAZOLE] came in with an MED greater than 2.5 mg/kg.

`Cn1ccc2cc3c(cc21)CCN3C(=O)Nc1cccnc1`: in data set [4], the pKb (as a rule, −log10 of the Kb, conventionally taken in molar units) was 8.39.

In the case of `OCCOCCN1CCN(C2=Nc3ccccc3Sc3ccccc32)CC1` [QUETIAPINE], the MED in data set [5] was found to be 30 mg/kg; in data set [6] it was 10 mg/kg; in data set [7] it was 10 mg/kg. Besides, the minimal effective dose in the data set filed under Mus musculus [8] was 5 mg/kg; in the data set listed under Mus musculus [9], 10 mg/kg; in the data set filed under Mus musculus [10], 10 mg/kg.

In the case of `CN(C)CCCN1c2ccccc2Sc2ccc(Cl)cc21`, the pKb in data set [11] is 8.84.

For `CC1CCN(CC[C@H]2CCCN2S(=O)(=O)c2cccc(O)c2)CC1`, the pKb in data set [12] turned out to be 9.55.

On to `O=S(=O)(N[C@@H]1CCN(CCCc2noc3cc(F)ccc23)C1)c1ccc(F)c(Cl)c1`, for which the Ki in data set [1] was 5.25 nM; in [2], 1.45 nM.

On to `Cc1cccc(S(=O)(=O)N[C@@H]2CCN(CCCc3noc4cc(F)ccc34)C2)c1`, for which the inhibition constant Ki in [2] was 1.7 nM.

Regarding `COC(=O)[C@H]1[C@H]2C[C@H]3c4[nH]c5ccccc5c4CCN3C[C@H]2CC[C@@H]1O` [RAUWOLSCINE], the pKb in data set [13] was determined as 8.62.

The values are drawn from ChEMBL document CHEMBL4680205, “Multifunctional 6-fluoro-3-[3-(pyrrolidin-1-yl)propyl]-1,2-benzoxazoles targeting behavioral and psychological symptoms of dementia (BPSD)” (Eur J Med Chem, 2020).
